Legend:
[1] = molecular target: T1, Human M4 (Homo sapiens, UniProt P08173); assay: M4 cell-based functional assay, calcium mobilization, potentiation of ACh EC20; details: for Emax at 30 µM: % ACh maximum at 30 μM; for EC50: CHO-K1 hM4-Gqi5 cells, calcium flux, ACh EC20
T1 construct: expressed in transfected cells
T1 sequence (P08173 1-479): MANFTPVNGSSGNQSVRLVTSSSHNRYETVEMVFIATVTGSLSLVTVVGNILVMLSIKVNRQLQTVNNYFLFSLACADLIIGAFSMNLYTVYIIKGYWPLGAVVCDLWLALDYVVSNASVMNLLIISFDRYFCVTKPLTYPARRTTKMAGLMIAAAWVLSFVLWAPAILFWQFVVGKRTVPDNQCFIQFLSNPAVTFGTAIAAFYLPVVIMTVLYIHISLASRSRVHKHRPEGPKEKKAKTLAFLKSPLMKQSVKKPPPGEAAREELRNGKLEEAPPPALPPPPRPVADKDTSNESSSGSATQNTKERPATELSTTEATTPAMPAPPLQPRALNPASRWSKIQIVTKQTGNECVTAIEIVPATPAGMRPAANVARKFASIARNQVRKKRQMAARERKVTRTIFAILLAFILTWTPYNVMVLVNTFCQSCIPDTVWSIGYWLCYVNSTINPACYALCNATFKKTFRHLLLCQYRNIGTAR
Method: Human and rat M4 cDNAs, along with the chimeric G protein Gqi5, were transfected into Chinese hamster ovary (CHO-K1) cells purchased from the American Type Culture Collection using Lipofectamine2000. The transfected cells were subjected to selection antbiotic treatment to generate stable cell lines; G418 sulfate (1 mg/ml) for selecting M4 expressing cells and Hygromycin B (500 μg/mL) for selecting Gqi5 expressing cells. The resulting polyclones were further screened to obtain monoclones of hM4-Gqi5 and rM4-Gqi5 for compound screening assay. Stable monoclone cells were maintained in Ham's F-12 medium containing 10% heat-inactivated fetal bovine serum (FBS), 1× Antibiotic/Antimycotic, 20 mM HEPES, 500 μg/mL G418 sulfate, and 200 μg/mL Hygromycin B in 37° C. humidified incubators in the presence of 5% CO2.
(§1) The high throughput assay was employed to measure receptor-induced mobilization of intracellular calcium to determine compound activity. Test compound was added to cells expressing the muscarinic receptors that were loaded with calcium sensitive fluorescent dye. After a ˜2.5 minute incubation period, a submaximal (EC20) concentration of acetylcholine was added, and the response measured. This kinetic assay allows for simultaneous screening and potency determination of multiple pharmacological modes of action including agonist and potentiator activity. CHO-K1 cells stably expressing muscarinic receptors were plated in growth medium lacking G418 and hygromycin at 15,000 cells/20 μL/well in Greiner 384-well black-walled, tissue culture (TC)-treated, clear-bottom plates (Greiner Bio-One). Cells were incubated overnight at 37° C. and 5% CO2. The next day, calcium assay buffer (Hank's balanced salt solution (HBSS), 20 mM HEPES, 2.5 mM Probenecid, 4.16 mM sodium bicarbonate (Sigma-Aldrich, St. Louis, MO)) was prepared to dilute compounds, agonists, and Fluo-4-acetomethoxyester (Fluo-4-AM), fluorescent calcium indicator dye. Compounds were serially diluted 1:3 into 10 point concentration response curves in DMSO using the Bravo Liquid Handler (Agilent, Santa Clara, CA), transferred to a 384 well daughter plates using an Echo acoustic liquid handler (Beckman Coulter, Indianapolis, Indiana), and diluted in assay Buffer to a 2× final concentration. The agonist plates were prepared using acetylcholine (ACh, Sigma-Aldrich, St. Louis, MO) concentrations for the EC20 and ECMAX responses by diluting in assay buffer to a 5× final concentration. The 2× dye solution (2.3 μM) was prepared by mixing a 2.3 mM Fluo-4-AM stock in DMSO with 10% (w/v) pluronic acid F-127 in a 1:1 ratio in assay buffer. Using a microplate washer (BioTek, Winooski, VT), cells were washed with assay buffer for 3 times to remove medium. After the final wash, 20 μL of assay buffer remained in the cell plates. Immediately, 20 μL of the 2× dye solution (final 1.15 μM) was added to each well of the cell plate using a Multidrop Combi dispenser (Thermo Fisher, Waltham, MA). After cells were incubated with the dye solutions for 45 min at 37° C. in the presence of 5% CO2, the dye solutions were removed and replaced with assay buffer using a microplate washer, leaving 20 μL of assay buffer in the cell plate.
The prepared compound, agonist, and cell plates were placed inside the Functional Drug Screening System uCell (FDSS uCell, Hamamatsu, Japan) to measure the calcium flux. The triple add protocol was used to measure Ca kinetics; Compound, ACh for EC20, and ACh for EC80 adds in an order. Briefly, after establishment of a fluorescence baseline for 2 seconds (excitation, 480 nm; emission, 530 nm), first add occurred by adding 20 μL of test compound to the cells, and the response was measured for 140 seconds. This is followed by second add; 10 μL (5×) of an EC20 concentration of ACh agonist was added to the cells, and the response of the cells was measured for 125 seconds. […]

[2] = molecular target: T2, Human M2 (Homo sapiens, UniProt P08172); assay: M2 cell-based functional assay, calcium mobilization (selectivity); details: for Emax at 30 µM: % ACh maximum at 30 μM
T2 construct: expressed in transfected cells; host or cells: CHO-K1
T2 sequence (P08172 1-466): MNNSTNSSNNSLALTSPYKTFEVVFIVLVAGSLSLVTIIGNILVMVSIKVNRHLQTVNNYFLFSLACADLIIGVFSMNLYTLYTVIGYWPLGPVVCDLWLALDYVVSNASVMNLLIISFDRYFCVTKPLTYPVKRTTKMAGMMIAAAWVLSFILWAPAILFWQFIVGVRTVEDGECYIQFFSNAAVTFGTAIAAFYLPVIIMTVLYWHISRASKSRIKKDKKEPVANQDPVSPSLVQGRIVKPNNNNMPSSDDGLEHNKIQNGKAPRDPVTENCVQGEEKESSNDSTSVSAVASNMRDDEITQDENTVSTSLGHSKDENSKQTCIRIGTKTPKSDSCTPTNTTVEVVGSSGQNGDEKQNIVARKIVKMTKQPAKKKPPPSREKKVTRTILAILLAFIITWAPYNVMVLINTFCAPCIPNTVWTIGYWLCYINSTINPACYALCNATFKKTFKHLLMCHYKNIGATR
Method: as §1
The prepared compound, agonist, and cell plates were placed inside the Functional Drug Screening System uCell (FDSS uCell, Hamamatsu, Japan) to measure the calcium flux. The triple add protocol was used to measure Ca kinetics; Compound, ACh for EC20, and ACh for EC80 adds in an order. Briefly, after establishment of a fluorescence baseline for 2 seconds (excitation, 480 nm; emission, 530 nm), first add occurred by adding 20 μL of test compound to the cells, and the response was measured for 140 seconds. This is followed by second add; 10 μL (5×) of an EC20 concentration of ACh agonist was added to the cells, and the response of the cells was measured for 125 seconds. Immediately, the third add occurred by adding […] (5×) of an EC80 concentration of ACh and the response of the cells was measured for 90 seconds. Acetylcholine-mediated maximum response (ECmax) was measured by adding 1 mM ACh as third add in the control wells. DMSO vehicle was added to the control wells in the first add for assessing ACh EC20, EC80, and ECmax responses. Calcium fluorescence was recorded as fold over basal fluorescence and raw data were normalized to the maximal response to ACh agonist. Agonist activity was analyzed as a concentration-dependent increase in calcium mobilization upon compound addition. Positive allosteric modulator activity was analyzed as a concentration-dependent increase in the EC20 acetylcholine response. Antagonist activity was analyzed as a concentration-dependent decrease in the EC80 acetylcholine response. […]

[3] = M2 cell-based functional assay, calcium flux

Row | SMILES | Emax at 30 µM [1] [%] | EC50 [1] [nM] | Emax at 30 µM [2] [%] | EC50 [2, 3] [nM] | Human M2 EC50 [2, 3]
1 | [2H]C1([2H])Oc2ccc(OC3CCN(c4nc5c(cc4C)C(=O)OC5C)CC3)cc2OC1([2H])[2H] (centres unmarked) [Compound 9, 2-(4-((2,3-dihydrobenzo[b][1,4]dioxin-6-yl-2,2,3,3-d4)oxy)piperidin-1-yl)-3,7-dimethylfuro[3,4-b]pyridin-5(7H)-one] | 91 | 27 | 57 | 2240 | 
2 | [2H]C1(Oc2ccc3c(c2)OC([2H])([2H])C([2H])([2H])O3)CCN(c2nc3c(cc2C)C(=O)NC3)CC1 [Compound 1, 2-(4-((2,3-dihydrobenzo[b][1,4]dioxin-6-yl-2,2,3,3-d4)oxy)piperidin-1-yl-4-d)-3-methyl-6,7-dihydro-5H-pyrrolo[3,4-b]pyridin-5-one] | 108 | 3 | 69 | 346 | 
3 | [2H]C1([2H])Oc2ccc(OC3CCN(c4nc5c(cc4C)C(=O)N(C4CCCC4)C5)CC3)cc2OC1([2H])[2H] [Compound 7, 6-cyclopentyl-2-(4-((2,3-dihydrobenzo[b][1,4]dioxin-6-yl-2,2,3,3-d4)oxy)piperidin-1-yl)-3-methyl-6,7-dihydro-5H-pyrrolo[3,4-b]pyridin-5-one] | 76 | 65 | 53 | 3750 | 
4 | [2H]C1([2H])Oc2ccc(OC3CCN(c4nc5nn(C)c(=O)n5c5c4CCCC5)CC3)cc2OC1([2H])[2H] [Compound A15, 5-(4-((2,3-dihydrobenzo[b][1,4]dioxin-6-yl-2,2,3,3-d4)oxy)piperidin-1-yl)-2-methyl-6,7,8,9-tetrahydro-[1,2,4]triazolo[4,3-a]quinazolin-1(2H)-one] | 83 | 53 | 45 | 5920 | 
5 | [2H]C1([2H])Oc2ccc(O[C@H]3CCN(c4nc5c(cc4C)C(=O)NC5)[C@H](C)C3)cc2OC1([2H])[2H] [Compound 4, 2-((2R,4S)-4-((2,3-dihydrobenzo[b][1,4]dioxin-6-yl-2,2,3,3-d4)oxy)-2-methylpiperidin-1-yl)-3-methyl-6,7-dihydro-5H-pyrrolo[3,4-b]pyridin-5-one] | 85 | 11 | 57 | 5870 | 
6 | [2H]C1([2H])Oc2ccc(OC3CCN(c4nc5nn(CC6CN(C)CCO6)c(=O)n5cc4C)CC3)cc2OC1([2H])[2H] (centres unmarked) [Compound A8, 7-(4-((2,3-dihydrobenzo[b][1,4]dioxin-6-yl-2,2,3,3-d4)oxy)piperidin-1-yl)-6-methyl-2-((4-methylmorpholin-2-yl)methyl)-[1,2,4]triazolo[4,3-a]pyrimidin-3(2H)-one] | 95 | 48 |  |  | Inactive
7 | [2H]C1([2H])Oc2ccc(OC3CCN(c4nc5nn(C)c(=O)n5c(Cl)c4C)CC3)cc2OC1([2H])[2H] [Compound A11, 5-chloro-7-(4-((2,3-dihydrobenzo[b][1,4]dioxin-6-yl-2,2,3,3-d4)oxy)piperidin-1-yl)-2,6-dimethyl-[1,2,4]triazolo[4,3-a]pyrimidin-3(2H)-one] | 90 | 12 | 57 | 6090 | 
8 | [2H]C1([2H])Oc2ccc(OC3CCN(c4nc5n[nH]c(=O)n5cc4C)CC3)cc2OC1([2H])[2H] [Compound A1, 7-(4-((2,3-dihydrobenzo[b][1,4]dioxin-6-yl-2,2,3,3-d4)oxy)piperidin-1-yl)-6-methyl-[1,2,4]triazolo[4,3-a]pyrimidin-3(2H)-one] | 100 | 5 | 78 | 367 | 
9 | [2H]C1([2H])Oc2ccc(OC3CCN(c4nc5n[nH]c(=O)n5c5c4CCC5)CC3)cc2OC1([2H])[2H] [Compound A16, 5-(4-((2,3-dihydrobenzo[b][1,4]dioxin-6-yl-2,2,3,3-d4)oxy)piperidin-1-yl)-2,6,7,8-tetrahydro-1H-cyclopenta[e][1,2,4]triazolo[4,3-a]pyrimidin-1-one] | 84 | 4 | 48 | 2860 | 
